Measured values published in publication PMC12892976, “Alkylation-based optimization of antifungal FPPS inhibitors yields a potent, broad-spectrum lipophilic zoledronate derivative” (mBio, 2025).
Values after ≈ are worked out from the molar mass of the structure shown.

How the values were obtained:
C. neoformans [1] = experiment: ROS accumulation, DCFDA; assay type: cell-based, Cryptococcus neoformans
Protocol: (§1) All cultures were incubated for 6 h and then labeled with 20 µM DCFDA in PBS for 30 min. Labeled cultures were transferred into a microplate, and fluorescence intensity was measured using a CLARIOstar plate reader (BMG Labtech).

C. neoformans infection = experiment: Galleria mellonella survival assay; assay type: in vivo
Protocol: (§2) Galleria mellonella larvae were reared and prepared as described previously ([53]). Larvae (n = 12 per treatment) were each inoculated with 10^5 spores or cells of A. fumigatus, C. albicans, or C. neoformans in 10 µL of PBS. […] Treated larvae were incubated at 37°C, and mortality was evaluated every day for 10 days.

A. fumigatus infection = experiment: Galleria mellonella survival assay; assay type: in vivo
Protocol: as §2

C. albicans infection = experiment: Galleria mellonella survival assay; assay type: in vivo
Protocol: as §2

A. fumigatus [2] = experiment: membrane permeabilization, nucleic acid leakage; assay type: cell-based, Aspergillus fumigatus
Protocol: (§3) Membrane permeabilization was determined by measuring the leakage of nucleic acid into the supernatant ([19]). […] Suspensions were incubated at 30°C with shaking at 200 rpm for 6 h, then passed through a 0.45 µm syringe filter. The A260 of each filtrate was measured with a DS-11 FX +benchtop spectrophotometer (DeNovix).

C. neoformans [3] = experiment: lipid peroxidation, TBARS assay (MDA); assay type: cell-based, Cryptococcus neoformans
Protocol: (§4) Cultures were incubated overnight, pelleted, and resuspended in 1 mL ice-cold PBS. Malondialdehyde (MDA) was extracted and quantified using a TBARS assay kit (Cayman Chemical #700870) according to the manufacturer’s instructions. MDA was normalized to total protein content in cell lysates.

A. fumigatus [4] = experiment: lipid peroxidation, TBARS assay (MDA); assay type: cell-based, Aspergillus fumigatus
Protocol: as §4

C. albicans [5] = experiment: ergosterol quantitation; assay type: cell-based, Candida albicans; details: 1× MIC vs no-drug control
Protocol: (§5) Treated cultures were incubated at 30°C with shaking for 18 h for C. albicans and A. fumigatus and for 32 h for C. neoformans. Cell membrane ergosterol was then extracted and quantified as described previously ([48]).

C. neoformans [6] = experiment: membrane permeabilization, nucleic acid leakage; assay type: cell-based, Cryptococcus neoformans
Protocol: as §3

C. albicans [7] = experiment: ROS accumulation, DCFDA; assay type: cell-based, Candida albicans
Protocol: as §1

C. albicans [8] = experiment: lipid peroxidation, TBARS assay (MDA); assay type: cell-based, Candida albicans
Protocol: as §4

fungal biofilms = experiment: biofilm XTT assay, summary across all biofilms tested; details: alone
Cryptococcus neoformans = experiment: time-kill assay; assay type: cell-based; details: 1× MIC, C. neoformans
Protocol: (§6) Cultures were incubated at 37°C with shaking at 200 rpm. Aliquots were withdrawn at 12, 24, 36, and 48 h post-treatment for both species, and additionally at 60 and 72 h for C. neoformans, then back-plated onto SDA. Viable cell counts were obtained after 48 h.

Candida albicans = experiment: time-kill assay; assay type: cell-based; details: 2× MIC, C. albicans
Protocol: as §6

TNF-α = tested on: TNF-α; parameters: method as in PMID 23610597; details: cited from earlier work
A. fumigatus [9] = experiment: ergosterol quantitation; assay type: cell-based, Aspergillus fumigatus; details: 1× MIC vs no-drug control
Protocol: as §5

C. albicans [10] = experiment: membrane permeabilization, nucleic acid leakage; assay type: cell-based, Candida albicans
Protocol: as §3

C. neoformans [11] = experiment: membrane depolarization, diS-C3(3); assay type: cell-based, Cryptococcus neoformans; details: diS-C3(3) emission maximum
Protocol: (§7) Membrane depolarization was determined using potential-sensitive fluorophore diS-C3(3) (Sigma), as described previously ([51]). Yeast cells and A. fumigatus conidia were treated as described above, then washed with citrate phosphate buffer and labeled with 20 nM diS-C3(3) at a final concentration of 10^6 cells/mL for yeasts and 10^4 conidia/mL for Aspergillus. Cells were transferred to a microplate (Invitrogen), then emission spectra between 560 and 585 nm (λexcitation = 531 nm) were obtained every 12 min for 1 h using a CLARIOstar plate reader (BMG Labtech). The emission λmax was determined at each timepoint.

A. fumigatus [12] = experiment: membrane fluidity, TMA-DPH anisotropy; assay type: cell-based, Aspergillus fumigatus
Protocol: Candida albicans cells were incubated for 6 h, and C. neoformans cells were incubated for 9 h at 30°C, washed, then labeled with 2 µM TMA-DPH in PBS for 10 min. […] Mycelia were fixed, and protoplasts were prepared as described previously ([50]). Protoplasts were washed twice and labeled with 2 µM TMA-DPH in PBS for 30 min. For all labeled cultures, parallel and perpendicular fluorescence intensities were measured at 440 nm in a CLARIOstar plate reader (BMG Labtech), and anisotropy was calculated.

C. albicans [13] = experiment: membrane depolarization, diS-C3(3); assay type: cell-based, Candida albicans; details: diS-C3(3) emission maximum
Protocol: as §7

Bacillus subtilis = experiment: antibacterial MIC; assay type: cell-based
Source text: (§8) […]; Table S3). […]. […] […].

Klebsiella pneumoniae = experiment: antibacterial MIC; assay type: cell-based
Source text: as §8

Salmonella Typhimurium = experiment: antibacterial MIC; assay type: cell-based; details: Salmonella enterica
Source text: as §8

Streptococcus pyogenes = experiment: antibacterial MIC; assay type: cell-based
Source text: as §8

Enterococcus faecalis = experiment: antibacterial MIC; assay type: cell-based
Source text: as §8

Enterobacter aerogenes = experiment: antibacterial MIC; assay type: cell-based; details: Klebsiella aerogenes
Source text: as §8

Proteus vulgaris = experiment: antibacterial MIC; assay type: cell-based
Source text: as §8

Acinetobacter baumanii = experiment: antibacterial MIC; assay type: cell-based; details: Acinetobacter baumannii
Source text: as §8

Staphylococcus aureus = experiment: antibacterial MIC; assay type: cell-based
Source text: as §8

Escherichia coli = experiment: antibacterial MIC; assay type: cell-based
Source text: as §8

Pseudomonas aeruginosa = experiment: antibacterial MIC; assay type: cell-based
Source text: as §8

Streptococcus pneumoniae = experiment: antibacterial MIC; assay type: cell-based
Source text: as §8

[14] = tested on: 12 pathogenic bacterial species; experiment: antibacterial MIC, summary of 12 pathogenic bacterial species; assay type: cell-based
Source text: as §8

Q: Which results are given for `CCCCCCCCCCn1cc[n+](CC(O)(P(=O)(O)O)P(=O)(O)O)c1` [10-ZOL, Decyl-zoledronate]?
A: concentration at which ROS (DCFDA fluorescence) increase became significant (C. neoformans [1]): 2 × MIC; survival compared with […] AMB (C. neoformans infection; 64 µg/mL): outperformed AMB; larval mortality vs no-drug control (C. neoformans infection; single infusion of 64 µg/mL): significantly reduced mortality; survival compared with […] AMB (A. fumigatus infection; 64 µg/mL): no significant difference in survival; larval mortality vs no-drug control (A. fumigatus infection; single infusion of 64 µg/mL): significantly reduced mortality; survival compared with […] AMB (C. albicans infection; 64 µg/mL): outperformed AMB; larval mortality vs no-drug control (C. albicans infection; single infusion of 64 µg/mL): significantly reduced mortality; concentration giving significant increase in leaked nucleic acid (A. fumigatus [2]): ≥ 1 × MIC; concentration at which lipid peroxidation increase became significant (C. neoformans [3]): 1 × MIC; concentration at which lipid peroxidation increase became significant (A. fumigatus [4]): 2 × MIC; membrane ergosterol content (C. albicans [5]): significant depletion of membrane ergosterol; concentration giving significant increase in leaked nucleic acid (C. neoformans [6]): ≥ 1 × MIC; concentration at which ROS (DCFDA fluorescence) increase became significant (C. albicans [7]): 2 × MIC; concentration at which lipid peroxidation increase became significant (C. albicans [8]): 1 × MIC; SIC80 range (fungal biofilms): 8 to 128 µg/mL; time at which viable cell count is significantly decreased from starting inoculum (Cryptococcus neoformans): 24 h; time at which viable cell count is significantly decreased from starting inoculum (Candida albicans): 12 h; TNF-α release (TNF-α): stimulate the release of TNF-α; membrane ergosterol content (A. fumigatus [9]): significant depletion of membrane ergosterol; concentration giving significant increase in leaked nucleic acid (C. albicans [10]): ≥ 1 × MIC; membrane depolarization (C. neoformans [11]): dose-dependent depolarization effect; concentration from which anisotropy differs significantly from no-drug control (A. fumigatus [12]): 2 × MIC; membrane depolarization (C. albicans [13]): dose-dependent depolarization effect; MIC (Bacillus subtilis): > 16 µg/mL; MIC (Klebsiella pneumoniae): 16 µg/mL; MIC (Salmonella Typhimurium): > 16 µg/mL; MIC (Streptococcus pyogenes): 16 µg/mL; MIC (Enterococcus faecalis): 16 µg/mL; MIC (Enterobacter aerogenes): 16 µg/mL; MIC (Proteus vulgaris): > 16 µg/mL; MIC (Acinetobacter baumanii): > 16 µg/mL; MIC (Staphylococcus aureus): 16 µg/mL; MIC (Escherichia coli): 16 µg/mL; MIC (Pseudomonas aeruginosa): > 16 µg/mL; MIC (Streptococcus pneumoniae): 16 µg/mL; antibacterial activity [14]: limited or no antibacterial activity

Q: With `O=P(O)(O)C(O)(Cn1ccnc1)P(=O)(O)O` [ZOL, zoledronate] as the molecule, how does the MIC (Bacillus subtilis) read?
A: The MIC was 256 µg/mL (≈ 941 µM).

Q: What about the MIC (Klebsiella pneumoniae) of the same molecule?
A: Its MIC is 256 µg/mL (≈ 941 µM).

Q: And the MIC (Salmonella Typhimurium)?
A: The MIC was 256 µg/mL (≈ 941 µM).

Q: What about the MIC (Streptococcus pyogenes) of the same molecule?
A: The MIC was 256 µg/mL (≈ 941 µM).

Q: And the MIC (Enterococcus faecalis)?
A: The MIC was 256 µg/mL (≈ 941 µM).

Q: And the MIC (Enterobacter aerogenes)?
A: The MIC was over 256 µg/mL.

Q: What about the MIC (Proteus vulgaris) of the same molecule?
A: Its MIC is 128 µg/mL (≈ 470 µM).

Q: What about the MIC (Acinetobacter baumanii) of the same molecule?
A: Its MIC is over 256 µg/mL.

Q: What about the MIC (Staphylococcus aureus) of the same molecule?
A: The MIC was 256 µg/mL (≈ 941 µM).

Q: What about the MIC (Escherichia coli) of the same molecule?
A: The MIC was 256 µg/mL (≈ 941 µM).

Q: What about the MIC (Pseudomonas aeruginosa) of the same molecule?
A: The MIC was over 256 µg/mL.

Q: What about the MIC (Streptococcus pneumoniae) of the same molecule?
A: The MIC was over 256 µg/mL.
